Data as given in article PMC7583931 (International Journal of Molecular Sciences, 2020).
Read-outs that look alike come from different tables or passages of the source.

Columns and labels:
[1] = target: T1, Human BBOX (γ-butyrobetaine hydroxylase) (Homo sapiens, UniProt O75936); experiment: carnitine formation from gamma-butyrobetaine by UPLC/MS/MS; format: biochemical
T1 construct: gene BBOX1; human recombinant enzyme
T1 sequence (O75936 1-387): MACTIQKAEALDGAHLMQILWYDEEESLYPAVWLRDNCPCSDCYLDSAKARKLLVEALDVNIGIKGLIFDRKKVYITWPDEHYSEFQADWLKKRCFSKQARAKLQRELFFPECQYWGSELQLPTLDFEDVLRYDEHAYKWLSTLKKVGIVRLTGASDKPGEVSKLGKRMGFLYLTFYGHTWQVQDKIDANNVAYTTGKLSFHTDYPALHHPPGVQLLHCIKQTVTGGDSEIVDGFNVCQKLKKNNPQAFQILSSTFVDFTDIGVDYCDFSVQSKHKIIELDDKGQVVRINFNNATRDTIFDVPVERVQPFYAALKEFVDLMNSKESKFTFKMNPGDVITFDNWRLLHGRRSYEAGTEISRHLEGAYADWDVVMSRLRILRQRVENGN
Text: carnitine formation from gamma-butyrobetaine by UPLC/MS/MS on Human BBOX (γ-butyrobetaine hydroxylase)

[2] = target: T2, hOCTN2 (carnitine/organic cation transporter OCTN2, SLC22A5) (Homo sapiens, UniProt O76082); experiment: inhibition of L-carnitine uptake in hOCTN2-transfected cells; format: cell-based; conditions: 10 µM carnitine with (N-methyl-3H)-carnitine tracer, Na+ buffer pH 7.4, 37 °C
T2 sequence (O76082 1-557): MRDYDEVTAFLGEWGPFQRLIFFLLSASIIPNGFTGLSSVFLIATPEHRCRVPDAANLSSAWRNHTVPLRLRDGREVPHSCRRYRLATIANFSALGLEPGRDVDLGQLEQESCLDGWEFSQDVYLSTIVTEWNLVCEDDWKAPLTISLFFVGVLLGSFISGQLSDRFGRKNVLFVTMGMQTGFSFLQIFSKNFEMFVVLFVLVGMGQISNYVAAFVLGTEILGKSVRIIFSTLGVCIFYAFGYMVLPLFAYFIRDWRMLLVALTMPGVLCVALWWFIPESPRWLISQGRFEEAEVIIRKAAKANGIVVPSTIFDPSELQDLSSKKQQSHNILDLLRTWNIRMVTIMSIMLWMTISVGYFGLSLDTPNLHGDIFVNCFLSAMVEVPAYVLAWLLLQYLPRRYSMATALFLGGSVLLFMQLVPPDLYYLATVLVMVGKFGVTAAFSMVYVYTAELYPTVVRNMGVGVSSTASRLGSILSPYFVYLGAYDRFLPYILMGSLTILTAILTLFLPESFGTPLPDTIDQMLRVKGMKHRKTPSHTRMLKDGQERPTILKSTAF

SMILES	IC50 [1] [µM]	carnitine uptake in presence of 50 μM compound [2]	IC50 ([1]; 200 µM GBB, 3 mM 2-oxoglutarate, 0.25 mM ferrous ammonium sulfate, 10 mM ascorbate, pH 7.0, 37 °C, 15 min preincubation) [µM]
Cc1ccc(NC(=O)CCC[N+](C)(C)C)cc1C [4j]	97 ± 17		
C[N+](C)(C)CCCC(=O)Nc1ccc([N+](=O)[O-])cc1 [4k]	78 ± 16	significantly inhibited by TCL substrates, including 4i, 4j, and 4k	
C[N+](C)(C)CCCC(=O)NCCCc1ccccc1 [4t]			76 ± 13
